Experimental data from EP3098220A1, “PROCESS FOR THE PREPARATION OF A NADPH OXIDASE INHIBITOR AND ITS POLYMORPHS AND USES THEREOF” (GenKyoTex SA, priority 2015, dated 2016).
In brackets after ≈: the same amount, converted by molar mass. Entries after “also recorded” stand apart in the source; their conditions may differ. Like-named read-outs stand apart in the source and are kept apart here.

Experiments:
Format in all cases: physicochemical
[1] = Solubility assessment of the two crystal forms (solubilized free base concentration over time in pH 7.4 buffer, HPLC); conditions: pH 7.4, 20°C, protected from light
[2] = as above; conditions: for solubility: pH 7.4
Experimental: The solubility of the two crystal forms have been characterized as described below: • A suspension is prepared in the buffer. Magnetic stirring is applied at 100 rpm.
The concentration of the free base in solution in buffer solution at pH 7.4 (38g Na2HPO4, 12 H2O + 3,8g NaH2PO4, 2 H2O completed to 1L with de-ionized water) is determined after 30 min, […], 2h, 4h, 6h and 24h at ambient temperature protected from light. For that purpose, the samples are withdrawn and filtered on filter Millex PVDF 0.22µm (diameter=13mm) and diluted in water/acetonitrile 50/50 (v/v) in order to reach a concentration in the range of standard solutions concentrations. Two separated dilutions are performed for each sample and the final result is the mean of these two dilutions results. The concentration of the solubilized fraction is determined by HPLC by a short gradient reverse phase standard method with UV-diode array detection solution.
The following tables display the solubilized freebase concentrations as a function of time at pH 7.4 (Table 10) at 20°C (samples protected from light) for: - Form A : crystalline freebase (sample 2), - Form B : crystalline freebase (sample 1).

[3] = Hygroscopicity assessment by dynamic water vapor sorption/desorption analysis (DVS); conditions: for hygroscopic character: criteria: 2% maximum uptake at 60% relative humidity; for sample mass uptake: 25°C
Experimental: The dynamic vapor sorption (DVS) analysis with water is performed on a DVS-Intrinsic incubator from SMS Ltd, equipped with DVS-Intrinsic Control Software 1.0. A sample weight of about 8 to 10mg, placed in an aluminum pan holder, is submitted to a full cycle analysis (sorption followed by desorption) in a dm/dt mode according to the conditions described in Table 6 below. Table 6 [table] The sample obtained after crystallization protocol is pre-dried under a stream of dry filtered air until a stable weight is obtained. Next, relative humidity is increased by 5% increments. For each step, the sample mass is allowed to increase until equilibrium is reached (dm/dt criterion), and then a new relative humidity rise occurs. […] After equilibration at this point, desorption begins in a similar stepwise fashion, with sample weight again allowed to stabilize after each incremental humidity decrease. For each segment of the method described above, the recording of the sample mass allows describing of the whole sorption/desorption behavior versus relative humidity. The hygroscopic character of the two crystal forms has been investigated as described above.

[4] = Solubility assessment in pH 1 HCl/KCl buffer (saturation, 24 hours at 20°C, HPLC); conditions: pH 1, simulated gastric fluid, thermodynamic from solid
Experimental: The solubility of the HC1 salt and of the free base was compared in a pH1 HC1/KC1 buffer and in a pH 7.4 phosphate buffer. For each medium, the saturation of the medium is obtained by adding an excess of active ingredient to a given volume of test medium. The suspension is stirred over 24 hours at 20°C, protected from light. The supernatant is then isolated by centrifugation, diluted in a solvent mixture allowing its injection into the chromatographic system. The compound concentration in solution for each medium is determined by external standardization and HPLC under the conditions detailed in Table3 below. Solubility was tested over a range from 1 µg/mL up to 1 mg/mL.

Row | Solubilized fraction ([1]; 1h) [mg/mL] | Solubilized fraction ([2]; pH 7.4, 20°C, protected from light, 30min) [mg/mL] | Solubilized fraction ([2]; pH 7.4, 20°C, protected from light, 2h) [mg/mL] | Solubilized fraction ([2]; pH 7.4, 20°C, protected from light, 4h) [mg/mL] | Solubilized fraction ([2]; pH 7.4, 20°C, protected from light, 6h) [mg/mL] | Solubilized fraction ([2]; pH 7.4, 20°C, protected from light, 24 h) [mg/mL] | solubility ([2]; phosphate buffer, 20 °C, pH 7.4, aqueous buffer, thermodynamic from solid, read-out: Solubility) [µg/mL] | mass loss upon drying ([3]; drying at 0%RH) [%] | solubility at 24 h [4] [µg/mL] | solubility at 1 h ([1]; phosphate buffer, 20 °C, pH 7.4, aqueous buffer, thermodynamic from solid, read-out: Solubilized fraction) [µg/mL] | solubility [2] [µg/mL] | solubility at 30 min ([2]; phosphate buffer, 20 °C, pH 7.4, aqueous buffer, thermodynamic from solid, pH 7.4, 20°C, protected from light, 30min, read-out: Solubilized fraction) [µg/mL] | solubility at 2 h ([2]; phosphate buffer, 20 °C, pH 7.4, aqueous buffer, thermodynamic from solid, pH 7.4, 20°C, protected from light, 2h, read-out: Solubilized fraction) [µg/mL] | solubility at 4 h ([2]; phosphate buffer, 20 °C, pH 7.4, aqueous buffer, thermodynamic from solid, pH 7.4, 20°C, protected from light, 4h, read-out: Solubilized fraction) [µg/mL] | solubility at 6 h ([2]; phosphate buffer, 20 °C, pH 7.4, aqueous buffer, thermodynamic from solid, pH 7.4, 20°C, protected from light, 6h, read-out: Solubilized fraction) [µg/mL] | solubility at 24 h ([2]; phosphate buffer, 20 °C, pH 7.4, aqueous buffer, thermodynamic from solid, pH 7.4, 20°C, protected from light, 24 h, read-out: Solubilized fraction) [µg/mL] | sample mass uptake ([3]; 60% relative humidity) [%] | sample mass uptake ([3]; 95% relative humidity) [%] | SMILES | hygroscopic character [3]
1 | 0.25 | 0.23 | 0.26 | 0.27 | 0.28 | 0.26 | 300 (≈ 760 µM) | 0.2 | > 30000 | – | – | – | – | – | – | – | – | – | CN(C)c1cccc(-c2c3c(=O)n(-c4ccccc4Cl)[nH]c3cc(=O)n2C)c1 [Form B, 2-(2-chlorophenyl)-4-[3-(dimethylamino)phenyl]-5-methyl-1H-pyrazolo[4,3-c] pyridine-3,6(2H,5H)-dione] | non-hygroscopic; also recorded: not hygroscopic
2 | – | – | – | – | – | – | – | – | – | 350 (≈ 886 µM) | 500 (≈ 1270 µM) | 330 (≈ 836 µM) | 370 (≈ 937 µM) | 390 (≈ 988 µM) | 400 (≈ 1010 µM) | 510 (≈ 1290 µM) | 0.2 | 0.3 | CN(C)c1cccc(-c2c3c(=O)n(-c4ccccc4Cl)[nH]c3cc(=O)n2C)c1 [Form A, 2-(2-chlorophenyl)-4-[3-(dimethylamino)phenyl]-5-methyl-1H-pyrazolo[4,3-c] pyridine-3,6(2H,5H)-dione] | –
3 | – | – | – | – | – | – | – | – | – | – | – | – | – | – | – | – | 0.2 | 0.3 | CN(C)c1cccc(-c2c3c(=O)n(-c4ccccc4Cl)[nH]c3cc(=O)n2C)c1 [free base, 2-(2-chlorophenyl)-4-[3-(dimethylamino)phenyl]-5-methyl-1H-pyrazolo[4,3-c] pyridine-3,6(2H,5H)-dione] | non-hygroscopic
